Values quoted from earlier work as cited in PMC3426641 (Biochemistry, 2012).
Where two headings read alike, the source gives them in different places.

Tests used:
Eis_Mtb [1] = target: T1, Eis_Mtb (Mycobacterium tuberculosis, UniProt P9WFK7); conditions: cited from earlier work
Eis_Mtb [2] = target: T1, Eis_Mtb; conditions: TLC and NMR spectroscopy; cited from earlier work
[3] = number of acetylations per AG, previously reported

T1 sequence (P9WFK7 whole entry): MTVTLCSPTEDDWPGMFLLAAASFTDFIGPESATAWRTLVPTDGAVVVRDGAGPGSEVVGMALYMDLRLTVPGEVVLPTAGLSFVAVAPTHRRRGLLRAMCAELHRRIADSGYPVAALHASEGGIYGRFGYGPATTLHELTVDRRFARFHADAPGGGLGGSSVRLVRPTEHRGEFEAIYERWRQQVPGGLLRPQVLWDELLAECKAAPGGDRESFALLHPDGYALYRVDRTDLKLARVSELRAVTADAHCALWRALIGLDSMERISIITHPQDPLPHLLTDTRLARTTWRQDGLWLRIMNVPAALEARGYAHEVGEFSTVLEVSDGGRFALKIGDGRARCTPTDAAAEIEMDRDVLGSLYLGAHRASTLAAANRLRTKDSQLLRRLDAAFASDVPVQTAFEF

Compound | level of acetylation by Eis from M. tuberculosis (Eis_Mtb [1]; [3]) | level of acetylation by Eis from M. tuberculosis (Eis_Mtb [1]) | positions acetylated (regio-specificity) (Eis_Mtb [2])
CN[C@@H]1[C@@H](O[C@H]2O[C@H](CO)[C@@H](N)[C@H](O)[C@H]2O)OC2C[C@@H](N)[C@@H](O[C@H]3[C@H](O)[C@@H](O)[C@H](N)C[C@@H]3N)OC2[C@@H]1O (some centres unmarked) [APR, apramycin] | could not chemically modify | – | –
NC[C@H]1O[C@H](O[C@H]2[C@H](O)[C@@H](O[C@H]3O[C@H](CO)[C@@H](O)[C@H](N)[C@H]3O)[C@H](N)C[C@@H]2N)[C@H](N)C[C@@H]1O [TOB, tobramycin] | tetra-acetylated | – | –
NC[C@@H]1O[C@H](O[C@H]2[C@@H](O)[C@H](O[C@@H]3[C@@H](O)[C@H](N)C[C@H](N)[C@H]3O[C@H]3O[C@H](CO)[C@@H](O)[C@H](O)[C@H]3N)O[C@@H]2CO)[C@H](N)[C@@H](O)[C@@H]1O [PAR, paromomycin] | di-acetylated | – | –
CN[C@@H]1[C@H](O)[C@H](NC)[C@H]2O[C@@]3(O)C(=O)C[C@@H](C)O[C@H]3O[C@@H]2[C@H]1O [SPT, spectinomycin] | not modified | – | –
NC[C@@H]1O[C@H](O[C@H]2[C@@H](O)[C@H](O[C@@H]3[C@@H](O)[C@H](N)C[C@H](N)[C@H]3O[C@H]3O[C@H](CN)[C@@H](O)[C@H](O)[C@H]3N)O[C@@H]2CO)[C@H](N)[C@@H](O)[C@@H]1O [NEO, neomycin B] | tri-acetylated | – | –
kanamycin A | – | di-acetylated | –
CN[C@@H]1[C@@H](O)[C@@H](O[C@@H]2[C@@H](O)[C@H](O[C@H]3OC(CN)=CC[C@H]3N)[C@@H](N)C[C@H]2N)OC[C@]1(C)O [SIS, sisomicin] | tri-acetylated | – | –
NCC[C@H](O)C(=O)N[C@@H]1C[C@H](N)[C@@H](O[C@H]2O[C@H](CN)[C@@H](O)[C@H](O)[C@H]2O)[C@H](O)[C@H]1O[C@H]1O[C@H](CO)[C@@H](O)[C@H](N)[C@H]1O [AMK, amikacin] | tri-acetylated | – | –
NC[C@H]1O[C@H](O[C@H]2[C@H](O)[C@@H](O)[C@H](N)C[C@@H]2N)[C@H](N)[C@@H](O)[C@@H]1O [NEA, neamine] | tri-acetylated | – | first at the 2′-, then at the 6′-, and finally at the 1-position
CN[C@@H]1C[C@H](N)[C@@H](O)[C@H](O[C@H]2O[C@H](CO)[C@H](O)[C@@H]3O[C@@]4(O[C@@H]23)O[C@H]([C@H](N)CO)[C@H](O)[C@H](O)[C@H]4O)[C@H]1O [HYG, hygromycin] | di-acetylated | – | –
[H]/N=C(/N)N[C@H]1[C@H](O)[C@@H](O)[C@H](O[C@@H]2O[C@@H](C)[C@](O)(C=O)[C@H]2O[C@@H]2O[C@@H](CO)[C@H](O)[C@@H](O)[C@@H]2NC)[C@@H](N/C(N)=N\[H])[C@@H]1O [STR, streptomycin] | not modified | – | –
NC[C@H]1O[C@H](O[C@H]2[C@H](O[C@@H]3O[C@H](CO)[C@@H](O)[C@H]3O)[C@@H](O)[C@H](N)C[C@@H]2N)[C@H](N)[C@@H](O)[C@@H]1O [RIB, ribostamycin] | tri-acetylated | – | –
CCN[C@@H]1C[C@H](N)[C@@H](O[C@H]2OC(CN)=CC[C@H]2N)[C@H](O)[C@H]1O[C@H]1OC[C@](C)(O)[C@H](NC)[C@H]1O [NET, netilmicin] | di-acetylated | – | –
